Data from patent US20250360069A1, “SUNSCREEN COMPOSITION FOR LACTOBACILLUS AND S. EPIDERMIDIS PROTECTION ON SKIN” (DSM IP Assets B.V., priority 2022, published 2025).

Columns and labels:
[1] = test system: Staphylococcus epidermidis ATCC 12228; experiment: In vitro UV model: bacterial survival upon UV irradiation (96-well, MPN count); assay type: cell-based; details: sample 20% v/v, UV 15 SED (150 mJ/cm^2 UVA+UVB), after 4 h; for S. epidermidis survival: compared to untreated and non-irradiated control
Method: (§1) The microbial strains used in this study are listed below and their cultures are reconstituted according to the direction of the supplier collection center of the reference strain, CRBIP (Institut Pasteur Collection, France) or ATCC (American Type Culture Collection, USA): • Lactobacillus crispatus CIP 103604 • Staphylococcus epidermidis ATCC 12228 The 96-well plate was filled with the culture media (140 μL) and a calibrated inoculum (20 μL) of each bacterial strain was added to reach […] colony forming units per milliliter (cfu/mL) final concentration. After contamination, the sample was added (40 μL; 20% v/v) in triplicate and was thoroughly mixed to ensure a homogeneous distribution. Then, the plate was submitted to UV stress through an UV irradiator system (BioSun, Vilber Lourmat, France) according to the UV doses presented Table 1 below. The specific UV dose selected was between 10 and 49% survival of the microbial population. For the microbial population counts, aliquots of the contaminated samples of L. crispatus and S. epidermidis were serially diluted (4 decimal dilutions followed by 8 binary dilutions, in triplicate) in culture media on 96-wells plates with triphenyltetrazolium. Then, the plates were incubated at 37° C.±2,5° C. during 48 h taking into account the respiratory type of each strain. After 48 h at the optimal growing conditions, the last dilution showing a pink color (triphenyltetrazolium) or turbidity indicated the contamination rate and allowed the determination of the decrease rate of microbial population (most probable number MPN method). Controls performed during this experiment were the culture medium with bacteria incubated without UV stress. The microbial population counts were expressed in cfu/mL and were the average of experiment done in triplicate. The use level of the single UV filter and combinations in the test formulations was calculated to obtain a predicted in vitro SPF value of 5.75+/−0.15 and 23.45+/−0.65, respectively (Table 2). The UV filters were mixed in the two oils, Tegosoft XC (55%) and Miglyol 829 Eco (ad100%) and the emulsifier Tween 80 (5%). The effect of selected UV irradiation conditions on the survival of microbial population of L. crispatus and S. epidermidis in the presence of the tested samples 1-10 at 20% v/v, was compared with the corresponding strain in the absence of samples 1-10 and without exposure to UV irradiation (control). The results after the 4-hour incubation were compared to the population of bacteria incubated without UV stress (determination of bacterial population survival) and were expressed in percentage of survival. The relative percentage of protection (%) was calculated from the difference between the survival percentages of samples and vehicle control (with UV irradiation) and divided to the survival percentage of the vehicle control. Consequently, the survival of each microbial population and the relative protection by the UV filter(s) were calculated and are summarized in the Table 2.

[2] = test system: Lactobacillus crispatus CIP 103604; experiment: as above; assay type: cell-based; details: sample 20% v/v, UV 50 SED (500 mJ/cm^2 UVA+UVB), after 4 h; for L. crispatus survival: compared to untreated and non-irradiated control
Method: as §1

| SMILES | S. epidermidis relative protection by the UV filter(s) vs. vehicle control [1] | S. epidermidis survival [1] | L. crispatus relative protection by the UV filter(s) vs. vehicle control [2] | L. crispatus survival [2] |
| --- | --- | --- | --- | --- |
| CCCCC(CC)COC(=O)C(C#N)=C(c1ccccc1)c1ccccc1 (stereo not shown) [Inv. 1, Octocrylene] | (+59) % | 63% | (+300) % | 50% |
| CCCCC(CC)COC(=O)c1ccc(Nc2nc(Nc3ccc(C(=O)OCC(CC)CCCC)cc3)nc(Nc3ccc(C(=O)OCC(CC)CCCC)cc3)n2)cc1 (stereo not shown) [Inv. 3, Ethylhexyl Triazone] | (+59) % | 63% | (+100) % | 25% |
| CCCCC(CC)COC(=O)c1ccccc1O (stereo not shown) [Ref. 1, Ethylhexyl Salicylate] | (+100) % | 79% | (+59) % | 20% |
| CCCCC(CC)COc1ccc(-c2nc(-c3ccc(OC)cc3)nc(-c3ccc(OCC(CC)CCCC)cc3O)n2)c(O)c1 (stereo not shown) [Ref. 2, Bis-Ethylhexyloxyphenol Methoxyphenyl Triazine] | (+100) % | 79% | (+59) % | 20% |
